Results published in ChEMBL document CHEMBL1124694, “C2,N6-disubstituted adenosines: synthesis and structure-activity relationships” (J Med Chem, 1989).

Assays:
Adenosine receptor A1 = biological target: T1, Adenosine receptor A1 (Rattus norvegicus, UniProt P25099)
T1 sequence (P25099 whole entry): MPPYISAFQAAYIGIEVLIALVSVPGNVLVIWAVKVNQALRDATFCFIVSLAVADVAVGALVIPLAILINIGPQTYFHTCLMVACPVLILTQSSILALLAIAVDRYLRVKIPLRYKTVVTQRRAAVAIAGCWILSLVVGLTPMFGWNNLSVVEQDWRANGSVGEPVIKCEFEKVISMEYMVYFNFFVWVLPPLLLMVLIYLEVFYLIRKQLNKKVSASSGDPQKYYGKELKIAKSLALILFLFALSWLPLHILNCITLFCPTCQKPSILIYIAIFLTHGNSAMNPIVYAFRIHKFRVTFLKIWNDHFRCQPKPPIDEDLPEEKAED

Adenosine A2 receptor [1] = biological target: T2, Adenosine A2 receptor (Rattus norvegicus, UniProt P29276+P30543)
Adenosine A2 receptor [2] = biological target: T2, Adenosine A2 receptor; test: Inhibition of [3H]NECA binding to Adenosine A2 receptor of rat striatal membranes; assay type: cell membranes, Membrane

Structure (SMILES) | Ki (Adenosine receptor A1) [nM] | Ki (Adenosine A2 receptor [1]) [nM] | Ki (Adenosine A2 receptor [2]) [nM]
OC[C@H]1O[C@@H](n2cnc3c(NC4CC4)ncnc32)[C@H](O)[C@@H]1O | 3.2 | – | –
OC[C@H]1O[C@@H](n2cnc3c(NCc4cccc5ccccc45)nc(NC4CCCCC4)nc32)[C@H](O)[C@@H]1O | 45000 | 10300 | –
OC[C@H]1OC(n2cnc3c(NCC(c4ccccc4)c4ccccc4)nc(Nc4ccccc4)nc32)[C@H](O)[C@@H]1O (stereo not given in full) | 2700 | 650 | –
OC[C@H]1OC(n2cnc3c(NCc4cccc5ccccc45)nc(Nc4ccccc4)nc32)[C@H](O)[C@@H]1O (stereo not given in full) | 560 | 230 | –
CC(Cc1ccccc1)Nc1nc(Nc2ccccc2)nc2c1ncn2C1O[C@H](CO)[C@@H](O)[C@H]1O (stereo not given in full) | 152 | 240 | –
COc1cc(OC)cc(C(CNc2nc(Nc3ccccc3)nc3c2ncn3C2O[C@H](CO)[C@@H](O)[C@H]2O)c2ccccc2)c1 (stereo not given in full) | 9000 | 470 | –
CC(O)CNc1ncnc2c1ncn2C1O[C@H](CO)[C@@H](O)[C@H]1O (stereo not given in full) | 5 | 9300 | –
OC[C@H]1OC(n2cnc3c(NC4CC4)nc(Nc4ccccc4)nc32)[C@H](O)[C@@H]1O (stereo not given in full) | 68 | 960 | –
OC[C@H]1OC(n2cnc3c(NCC(c4ccccc4)c4ccccc4)nc(Sc4ccccc4)nc32)[C@H](O)[C@@H]1O (stereo not given in full) | 840 | 800 | –
CC(Cc1ccccc1)Nc1nc(N)nc2c1ncn2C1O[C@H](CO)[C@@H](O)[C@H]1O (stereo not given in full) | 19.2 | 1530 | –
CC(Cc1ccccc1)Nc1nc(Sc2ccccc2)nc2c1ncn2C1O[C@H](CO)[C@@H](O)[C@H]1O (stereo not given in full) | 210 | 1000 | –
Nc1nc(S(=O)(=O)c2ccccc2)nc2c1ncn2C1O[C@H](CO)[C@@H](O)[C@H]1O (stereo not given in full) | 2600 | – | 1230
OC[C@H]1OC(n2cnc3c(NC4CC5CCC4C5)nc(Nc4ccccc4)nc32)[C@H](O)[C@@H]1O (stereo not given in full) | 7.7 | 472 | –
Nc1nc(NC2CCCC2)c2ncn(C3O[C@H](CO)[C@@H](O)[C@H]3O)c2n1 (stereo not given in full) | 8.3 | 6100 | –
OC[C@H]1OC(n2cnc3c(NCc4cccc5ccccc45)nc(Sc4ccccc4)nc32)[C@H](O)[C@@H]1O (stereo not given in full) | 1470 | 610 | –
OC[C@H]1OC(n2cnc3c(NCC4c5ccccc5-c5ccccc54)nc(Nc4ccccc4)nc32)[C@H](O)[C@@H]1O (stereo not given in full) | 8900 | 2100 | –
OC[C@H]1OC(n2cnc3c(NCc4ccccc4)nc(Nc4ccccc4)nc32)[C@H](O)[C@@H]1O (stereo not given in full) | 1630 | 7100 | –
CC(O)CNc1nc(Nc2ccccc2)nc2c1ncn2C1O[C@H](CO)[C@@H](O)[C@H]1O (stereo not given in full) | 50 | 1700 | –

Structure (SMILES) | Ki (Adenosine receptor A1) [nM] | Ki (Adenosine A2 receptor [1]) [nM] | Ki (Adenosine A2 receptor [2]) [nM]
O=S(=O)(c1ccccc1)c1nc(NCc2cccc3ccccc23)c2ncn(C3O[C@H](CO)[C@@H](O)[C@H]3O)c2n1 (stereo not given in full) | 2000 | 270 | –
COc1cc(OC)cc(C(CNc2nc(Nc3ccccc3)nc3c2ncn3C2O[C@H](CO)[C@@H](O)[C@H]2O)c2ccccc2C)c1 (stereo not given in full) | 10300 | 340 | –
Nc1nc(NCC2c3ccccc3-c3ccccc32)c2ncn(C3O[C@H](CO)[C@@H](O)[C@H]3O)c2n1 (stereo not given in full) | 18.5 | 22 | –
Nc1nc(NCC(c2ccccc2)c2ccccc2)c2ncn(C3O[C@H](CO)[C@@H](O)[C@H]3O)c2n1 (stereo not given in full) | 61 | 135 | –
Nc1nc(Sc2ccccc2)nc2c1ncn2C1O[C@H](CO)[C@@H](O)[C@H]1O (stereo not given in full) | 2200 | – | 2000
COc1ccc(-c2nc(N)c3ncn(C4O[C@H](CO)[C@@H](O)[C@H]4O)c3n2)cc1 (stereo not given in full) | 1320 | – | 600
OC[C@H]1OC(n2cnc3c(NC4CCCC4)nc(Nc4ccccc4)nc32)[C@H](O)[C@@H]1O (stereo not given in full) | 12.4 | 144 | –
O=S(=O)(c1ccccc1)c1nc(NC2CCCC2)c2ncn(C3O[C@H](CO)[C@@H](O)[C@H]3O)c2n1 (stereo not given in full) | 96 | 2300 | –
OC[C@H]1OC(n2cnc3c(NC4CCCC4)nc(Sc4ccccc4)nc32)[C@H](O)[C@@H]1O (stereo not given in full) | 37 | 4000 | –
OC[C@H]1OC(n2cnc3c(NN4CCCC4)nc(Nc4ccccc4)nc32)[C@H](O)[C@@H]1O (stereo not given in full) | 18400 | 58000 | –
OC[C@H]1OC(n2cnc3c(NC4CCCCC4)nc(Sc4ccccc4)nc32)[C@H](O)[C@@H]1O (stereo not given in full) | 160 | 6700 | –
OC[C@H]1OC(n2cnc3c(NCCc4ccccc4)nc(NCCc4ccccc4)nc32)[C@H](O)[C@@H]1O (stereo not given in full) | 1620 | 2000 | –
O=S(=O)(c1ccccc1)c1nc(NC2CCCCC2)c2ncn(C3O[C@H](CO)[C@@H](O)[C@H]3O)c2n1 (stereo not given in full) | 420 | 5100 | –
OC[C@H]1OC(n2cnc3c(NCc4cccc5ccccc45)nc(F)nc32)[C@H](O)[C@@H]1O (stereo not given in full) | 18.1 | 14.9 | –
OC[C@H]1OC(n2cnc3c(NC4CCCCC4)nc(Nc4ccccc4)nc32)[C@H](O)[C@@H]1O (stereo not given in full) | 54 | 450 | –
OC[C@H]1OC(n2cnc3c(NCc4cccc5ccccc45)nc(NCc4ccccc4)nc32)[C@H](O)[C@@H]1O (stereo not given in full) | 530 | 350 | –
Nc1nc(NC2CCCCC2)c2ncn(C3O[C@H](CO)[C@@H](O)[C@H]3O)c2n1 (stereo not given in full) | 19.3 | 3500 | –
Nc1nc(=O)[nH]c2c1ncn2[C@@H]1O[C@H](CO)[C@@H](O)[C@H]1O [ISOGUANOSINE] | – | – | 330
